From publication PMC4366154, “Easy to Use Plastic Optical Fiber-Based Biosensor for Detection of Butanal” (PLoS ONE, 2015)

Biological target: T1, porcine odorant-binding protein (pOBP) (Sus scrofa, UniProt P81245)
T1 construct: recombinant in E. coli BL21-DE3 from pGEX2TK as GST fusion, GST cut off on column with thrombin
T1 sequence (P81245 1-157): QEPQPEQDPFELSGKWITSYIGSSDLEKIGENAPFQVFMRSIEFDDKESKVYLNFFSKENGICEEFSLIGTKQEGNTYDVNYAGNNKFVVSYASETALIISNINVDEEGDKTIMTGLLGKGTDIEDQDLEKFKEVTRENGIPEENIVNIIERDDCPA
Assay: direct fluorescence titration, emission at […] nm
Conditions: 20 mM Tris-HCl pH 7.8, 1.0 μM pOBP, overnight at 4 °C

Nc1cccc2cc3ccccc3cc12 [1-amino-anthracene]
direct fluorescence titration, emission at 480 nm: direct titrations using the fluorescent ligand 1-amino-anthracene (AMA)
